According to ChEMBL document CHEMBL1201862, “PubChem BioAssay data set” (2004):
Where “and” joins values, the source holds several entries; their conditions need not be identical. Identical values can stand only once.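 Five concentrations, 48 hours, 96-well plates. Abbreviation: GI50, concentration required for 50% inhibition of growth.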 Calls of active or inactive are those of the source. Rule as the data show it: active = GI50 up to about 1.1 µM and inactive = higher.

Columns and labels:
Assay in all cases: NCI anticancer screen, dose series, 48 h
OVCAR-8 = tested on: OVCAR-8
KM12 = tested on: KM12
HCC 2998 = tested on: HCC 2998
SK-OV-3 = tested on: SK-OV-3
UACC-62 = tested on: UACC-62
RXF 393 = tested on: RXF 393
RPMI-8226 = tested on: RPMI-8226
UO-31 = tested on: UO-31
CAKI-1 = tested on: CAKI-1
ACHN = tested on: ACHN
LXFL 529 = tested on: LXFL 529
NCI-H522 = tested on: NCI-H522
IGROV-1 = tested on: IGROV-1
COLO 205 = tested on: COLO 205
HL-60 = tested on: HL-60
Malme-3M = tested on: Malme-3M
EKVX = tested on: EKVX
K562 = tested on: K562
KM-20L2 = tested on: KM-20L2
786-0 = tested on: 786-0
SF-539 = tested on: SF-539
OVCAR-4 = tested on: OVCAR-4
SK-MEL-2 = tested on: SK-MEL-2
HOP-18 = tested on: HOP-18
SR = tested on: SR
NCI-H460 = tested on: NCI-H460
SF-295 = tested on: SF-295
NCI-H23 = tested on: NCI-H23
SNB-19 = tested on: SNB-19
NCI-H226 = tested on: NCI-H226
CCRF-CEM = tested on: CCRF-CEM
OVCAR-3 = tested on: OVCAR-3
UACC-257 = tested on: UACC-257
SNB-78 = tested on: SNB-78
M19-MEL = tested on: M19-MEL
TK-10 = tested on: TK-10
HCT-116 = tested on: HCT-116
HCT-15 = tested on: HCT-15
SF-268 = tested on: SF-268
HT-29 = tested on: HT-29
HOP-62 = tested on: HOP-62
DMS-273 = tested on: DMS-273
MOLT-4 = tested on: MOLT-4
OVCAR-5 = tested on: OVCAR-5
M14 = tested on: M14
XF498 = tested on: XF498
DMS-114 = tested on: DMS-114
SN12C = tested on: SN12C
A549 = tested on: A549
LOX IMVI = tested on: LOX IMVI
SK-MEL-28 = tested on: SK-MEL-28
U-251 = tested on: U-251
SW-620 = tested on: SW-620
DLD-1 = tested on: DLD-1
RXF 631 = tested on: RXF 631
SNB-75 = tested on: SNB-75
A498 = tested on: A498

SMILES: CC(C)(C)c1cc2c3c(c1)C(C(F)(F)F)(C(F)(F)F)O[Te]3(C)OC2(C(F)(F)F)C(F)(F)F
- GI50 (OVCAR-8): > 10 µM (inactive)
- GI50 (KM12): > 100 µM (inactive)
- GI50 (HCC 2998): > 100 µM (inactive)
- GI50 (SK-OV-3): > 100 µM (inactive)
- GI50 (UACC-62): > 100 µM (inactive)
- GI50 (RXF 393): > 100 µM (inactive)
- GI50 (RPMI-8226): > 100 µM (inactive)
- GI50 (UO-31): > 100 µM (inactive)
- GI50 (CAKI-1): > 100 µM (inactive)
- GI50 (ACHN): > 100 µM (inactive)
- GI50 (LXFL 529): > 100 µM (inactive)
- GI50 (NCI-H522): > 100 µM (inactive)
- GI50 (IGROV-1): > 100 µM (inactive)
- GI50 (COLO 205): > 100 µM (inactive)
- GI50 (HL-60): > 100 µM (inactive)
- GI50 (Malme-3M): > 100 µM (inactive)
- GI50 (EKVX): > 100 µM (inactive)
- GI50 (K562): > 100 µM (inactive)
- GI50 (KM-20L2): > 100 µM (inactive)
- GI50 (786-0): > 100 µM (inactive)
- GI50 (SF-539): > 100 µM (inactive)
- GI50 (OVCAR-4): > 100 µM (inactive)
- GI50 (SK-MEL-2): > 100 µM (inactive)
- GI50 (HOP-18): > 100 µM (inactive)
- GI50 (SR): > 100 µM (inactive)
- GI50 (NCI-H460): > 100 µM (inactive)
- GI50 (SF-295): > 100 µM (inactive)
- GI50 (NCI-H23): > 100 µM (inactive)
- GI50 (SNB-19): > 100 µM (inactive)
- GI50 (NCI-H226): > 100 µM (inactive)
- GI50 (CCRF-CEM): > 100 µM (inactive)
- GI50 (OVCAR-3): > 100 µM (inactive)
- GI50 (UACC-257): > 100 µM (inactive)
- GI50 (SNB-78): > 100 µM (inactive)
- GI50 (M19-MEL): > 100 µM (inactive)
- GI50 (TK-10): > 100 µM (inactive)
- GI50 (HCT-116): > 100 µM (inactive)
- GI50 (HCT-15): > 100 µM
- GI50 (SF-268): > 100 µM (inactive)
- GI50 (HT-29): > 100 µM (inactive)
- GI50 (HOP-62): > 100 µM (inactive)
- GI50 (DMS-273): > 100 µM (inactive)
- GI50 (MOLT-4): > 100 µM (inactive)
- GI50 (OVCAR-5): > 100 µM (inactive)
- GI50 (M14): > 100 µM (inactive)
- GI50 (XF498): > 100 µM (inactive)
- GI50 (DMS-114): > 100 µM (inactive)
- GI50 (SN12C): > 100 µM (inactive)
- GI50 (A549): > 100 µM (inactive)
- GI50 (LOX IMVI): > 100 µM (inactive)
- GI50 (SK-MEL-28): > 100 µM (inactive)
- GI50 (U-251): > 100 µM (inactive)
- GI50 (SW-620): > 100 µM (inactive)
- GI50 (DLD-1): > 100 µM (inactive)

SMILES: CC1OC(n2ncc(=O)[nH]c2=O)C=CC1=O (centres undefined)
- GI50 (OVCAR-8): 37.3 µM (inactive) and 41.1 µM (inactive)
- GI50 (KM12): 46.1 µM (inactive) and 63 µM (inactive)
- GI50 (HCC 2998): > 100 µM (inactive)
- GI50 (UACC-62): 31.8 µM (inactive) and 60.4 µM (inactive)
- GI50 (RXF 631): 13.1 µM (inactive) and 16.4 µM (inactive)
- GI50 (RPMI-8226): 33 µM (inactive) and 24.3 µM (inactive)
- GI50 (UO-31): > 100 µM (inactive)
- GI50 (CAKI-1): > 100 µM (inactive)
- GI50 (ACHN): 27.9 µM (inactive) and 37.9 µM (inactive)
- GI50 (LXFL 529): > 100 µM (inactive) and 59 µM (inactive)
- GI50 (NCI-H522): 20 µM (inactive) and 18.8 µM (inactive)
- GI50 (IGROV-1): > 100 µM (inactive)
- GI50 (HL-60): 26.2 µM (inactive) and 23.7 µM (inactive)
- GI50 (Malme-3M): 22.1 µM (inactive) and 18.8 µM (inactive)
- GI50 (K562): 33.1 µM (inactive) and 44 µM (inactive)
- GI50 (786-0): 36.3 µM (inactive) and 55.2 µM (inactive)
- GI50 (SF-539): 40.2 µM (inactive) and 24.2 µM (inactive)
- GI50 (OVCAR-4): > 100 µM (inactive)
- GI50 (SNB-75): 44.5 µM (inactive) and 55.5 µM (inactive)
- GI50 (SR): 26.7 µM (inactive) and 33.5 µM (inactive)
- GI50 (NCI-H460): > 100 µM (inactive) and 63.1 µM (inactive)
- GI50 (SF-295): 52.6 µM (inactive)
- GI50 (NCI-H226): > 100 µM (inactive)
- GI50 (OVCAR-3): 95.3 µM (inactive)
- GI50 (SNB-78): 21.5 µM (inactive) and 26.9 µM (inactive)
- GI50 (M19-MEL): 50.8 µM (inactive) and 71.3 µM (inactive)
- GI50 (TK-10): > 100 µM (inactive) and 71.4 µM (inactive)
- GI50 (HCT-116): 30.4 µM (inactive) and 55.8 µM (inactive)
- GI50 (HT-29): 41.8 µM (inactive) and 52.6 µM (inactive)
- GI50 (OVCAR-5): > 100 µM (inactive)
- GI50 (SN12C): 70.3 µM (inactive) and 35.8 µM (inactive)
- GI50 (A549): > 100 µM (inactive)
- GI50 (LOX IMVI): > 100 µM (inactive)
- GI50 (SK-MEL-28): 31.9 µM (inactive) and 21.8 µM (inactive)
- GI50 (U-251): 50.7 µM (inactive) and 41.2 µM (inactive)

SMILES: Clc1ccc2c(c1)[nH]c1c2nc2ccccn21
- GI50 (KM12): 19.3 µM (inactive)
- GI50 (SK-OV-3): 30.3 µM (inactive)
- GI50 (RXF 631): 43 µM (inactive)
- GI50 (RPMI-8226): 23.7 µM (inactive)
- GI50 (UO-31): 19.5 µM (inactive)
- GI50 (NCI-H522): 19.5 µM (inactive)
- GI50 (IGROV-1): 30.8 µM (inactive)
- GI50 (A498): 27.1 µM (inactive)
- GI50 (KM-20L2): 27.9 µM (inactive)
- GI50 (786-0): 22.1 µM (inactive)
- GI50 (SF-539): 22.6 µM (inactive)
- GI50 (SR): 25.1 µM (inactive)
- GI50 (NCI-H23): 24.7 µM (inactive)
- GI50 (SNB-19): 22.4 µM (inactive)
- GI50 (NCI-H226): 22.4 µM (inactive)
- GI50 (UACC-257): 29.2 µM (inactive)
- GI50 (SNB-78): 24 µM (inactive)
- GI50 (TK-10): > 10 µM (inactive)
- GI50 (HCT-116): 21.2 µM (inactive)
- GI50 (SF-268): 28.6 µM (inactive)
- GI50 (HT-29): 21.9 µM (inactive)
- GI50 (M14): 24.7 µM (inactive)
- GI50 (A549): 50.1 µM (inactive)
- GI50 (SK-MEL-28): 21.3 µM (inactive)
- GI50 (SW-620): 18.5 µM (inactive)
